Measured values published in PMC11066040, “Nuclear phosphoinositide signaling promotes YAP/TAZ-TEAD transcriptional activity in breast cancer” (The EMBO Journal, 2024).

Tests used:
[1] = target: T1, GST-YAP (Homo sapiens, UniProt P46937); experiment: microscale thermophoresis; type: binding
T1 construct: gene YAP1

[2] = target: T1, GST-YAP; experiment: microscale thermophoresis; type: binding; settings: pH 8.0, 50 mM NaCl, 80 mM KCl, 0.05% Tween-20; fluorescently labeled GST-YAP

T1 sequence (P46937 whole entry): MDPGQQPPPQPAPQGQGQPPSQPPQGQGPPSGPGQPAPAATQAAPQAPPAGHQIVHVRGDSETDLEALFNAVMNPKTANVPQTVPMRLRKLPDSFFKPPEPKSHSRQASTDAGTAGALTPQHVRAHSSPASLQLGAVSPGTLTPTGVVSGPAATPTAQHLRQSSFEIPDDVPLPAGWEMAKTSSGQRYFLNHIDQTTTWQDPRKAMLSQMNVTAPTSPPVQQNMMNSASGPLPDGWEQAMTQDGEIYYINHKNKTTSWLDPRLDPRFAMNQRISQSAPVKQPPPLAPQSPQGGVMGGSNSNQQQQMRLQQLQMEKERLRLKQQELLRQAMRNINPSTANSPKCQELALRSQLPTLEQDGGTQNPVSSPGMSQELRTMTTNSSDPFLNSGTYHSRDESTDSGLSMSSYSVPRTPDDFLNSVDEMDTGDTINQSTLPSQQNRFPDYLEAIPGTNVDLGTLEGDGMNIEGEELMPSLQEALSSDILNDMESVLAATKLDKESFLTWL

Row | Kd [1] [nM] | Structure (SMILES) | binding [2]
1 | 8.13 ± 2.63 | CCCCC/C=C\C/C=C\C/C=C\C/C=C\CCCC(=O)O[C@H](COC(=O)CCCCCCCCCCCCCCCCC)COP(=O)(O)O[C@H]1[C@H](O)[C@@H](OP(=O)(O)O)[C@H](OP(=O)(O)O)[C@@H](OP(=O)(O)O)[C@H]1O [PI(3,4,5)P3] | 
2 | 166 ± 13.5 | CCCCC/C=C\C/C=C\C/C=C\C/C=C\CCCC(=O)O[C@H](COC(=O)CCCCCCCCCCCCCCCCC)COP(=O)(O)O[C@@H]1[C@H](O)[C@H](O)[C@@H](OP(=O)(O)O)[C@H](OP(=O)(O)O)[C@H]1O [PI(4,5)P2] | 
3 |  | CCCCC/C=C\C/C=C\C/C=C\C/C=C\CCCC(=O)O[C@H](COC(=O)CCCCCCCCCCCCCCCCC)COP(=O)(O)O[C@@H]1[C@H](O)[C@H](O)[C@@H](O)[C@H](O)[C@H]1O [PI] | No significant binding of GST-YAP with PI was detected
